# Data as given in patent US8093050B2, “mTOR inhibtors and mTOR signaling pathway inhibitors induce differentiation of human embryonic stem cells into the osteoblastic lineage” (Korea Research Institute of Bioscience and Biotechnology, priority 2007, dated 2012).
# Entries after “also recorded” stand apart in the source; their conditions may differ.
# Tests used:
# [1] = test system: human embryonic stem cells; test: RT-PCR of osteoblast-specific genes, adhesion culture (FIG. 5); format: cell-based; conditions: for expression of osteoblast-specific genes: 10 μM of LY29400, 1 μM of an AKT inhibitor, or rapamycin; for expression level of osteoblastic markers: human embryonic stem cells, LY294002, AKT inhibitor, or 20 nM rapamycin for 5 days
# Protocol: For osteogenic differentiation by adhesion culturing, the human embryonic stem cells obtained in Example 1, after passage, were cultured in the culture medium of Example 1 for 2 days, and then in a culture medium, free of recombinant human FGF basic, […], 0.01˜50 μM LY294002, 0.01˜20 μM AKT inhibitor, or conventional osteogenic supplements (10 mM β-glycerophosphate, 0.1 mM Dexamethasone, 0.1 mM L-ascorbic acid) for […], with daily replacement with a fresh embryonic stem cell culture medium (FIG. 2A).
# (§1) The differentiation of human embryonic stem cells into osteoblasts in Example 3 was examined by detecting the expression of osteoblast-specific genes through RT-PCR and quantitative real-time PCR. For this, after treatment or non-treatment with rapamycin, LY294002, an AKT inhibitor or osteogenic supplements (10 mM β-glycerophosphate, 0.1 mM Dexamethasone, and 0.1 mM L-ascorbic acid), cells were collected according to differentiation stages and subjected to total RNA isolation using a TRIzol reagent (Invitrogen, USA). The RNA was used as a template to synthesize cDNA with a oligo(dT) primer in the presence of a Superscript II reverse transcriptase, followed by PCR with various primers listed in Table 1, below.
# First, a description is given of the adhesion culture method. […] Afterwards, the human embryonic stem cells are induced to differentiate into osteoblasts by being cultured for five days in a medium that is the same except that it is free of recombinant human FGF basic and is supplemented with LY294002, an AKT inhibitor, rapamycin, and/or conventional osteogenic supplements (10 mM 3-glycerophosphate, 0.1 mM Dexamethasone, and 0.1 mM L-ascorbic acid) (Stage II).
# [2] = test system: human embryonic stem cell-derived embryoid bodies; test: RT-PCR of osteoblast-specific genes, embryoid body formation method (FIG. 6); format: cell-based; conditions: for expression level of osteoblastic markers / expression level of osteoblast-specific genes compared to untreated control: embryoid bodies; for expression level of osteoblastic markers: 20 nM rapamycin for three weeks; for expression level of osteoblast-specific genes compared to untreated control: LY294002 (0-50 μM), AKT inhibitor (0-20 μM), or rapamycin (0-200 nM) for 1~3 weeks; for expression levels of osteoblast-specific genes: embryoid body formation method
# Protocol: After being collected as a suspension, the cell clumps were transferred into bacterial cell culture dishes and incubated for 5 days in a suspension culture manner. Afterwards, the embryoid bodies thus obtained were transferred to Matrigel (BD biosciences, USA)-coated culture dishes, free of human recombinant FGF basic, containing 0.1˜200 nM rapamycin, […], or osteogenic supplements (10 mM β-glycerophosphate, 0.1 mM Dexamethasone, and 0.1 mM L-ascorbic acid) for three weeks in an adhesion culture manner to achieve osteogenic differentiation (FIG. 3A).
# as §1
# (§2) Osteogenic differentiation using the embryoid body formation method is schematically illustrated in FIG. 3A. Initially, human embryonic stem cells are cultured for one day in the same manner as in the adhesion culture method, after which the colonies thus grown are sliced into cell clumps using a tool made from a glass pipette.
# [3] = test system: human embryonic stem cells; test: Cytotoxicity in differentiation culture; format: cell-based; conditions: for cytotoxicity: 10 μM of LY29400, 1 μM of an AKT inhibitor, or 220 nM of rapamycin
# [4] = test system: PI3K; conditions: cited from earlier work
# [5] = test system: PI4K, an EGR receptor, a PDGF receptor, an insulin receptor, an MAP kinase, an S6 kinase; conditions: cited from earlier work
# [6] = test system: human embryonic stem cell-derived embryoid bodies; test: Quantitative real-time PCR of osteoblast-specific genes (FIGS. 7, 8, 11); format: cell-based
# Protocol: After being collected as a suspension, the cell clumps were transferred into bacterial cell culture dishes and incubated for 5 days in a suspension culture manner. Afterwards, the embryoid bodies thus obtained were transferred to Matrigel (BD biosciences, USA)-coated culture dishes, free of human recombinant FGF basic, containing 0.1˜200 nM rapamycin, 0.01˜50 μM LY294002, 0.01˜20 μM AKT inhibitor, or osteogenic supplements (10 mM β-glycerophosphate, 0.1 mM Dexamethasone, and 0.1 mM L-ascorbic acid) for three weeks in an adhesion culture manner to achieve osteogenic differentiation (FIG. 3A).
# as §1, §2
# [7] = test system: human embryonic stem cell-derived embryoid bodies; test: Analysis for mineralization by Alizarin-Red S staining; format: cell-based
# Protocol: The cells obtained using the three differentiation inducing techniques described in Example 3 were analyzed for mineralization using an Alizarin-Red S staining method. After aspirating the culture medium, the cells on the culture dish were washed with PBS and fixed at 4° C. for 1 hr with 70% ethanol. Thereafter, the cells were stained with a 40 mM alizarin red (AR) solution (pH 4.2) for 10 min, washed with distilled water, and observed for mineral nodule formation under an optical microscope before they were completely dried. […] A culture period of three weeks was required to maximize the number of Alizarin Red-positive cells upon osteogenic differentiation with rapamycin alone.
# [8] = test system: human embryonic stem cell-derived embryoid bodies; test: Immunofluorescent staining for BSP and osteocalcin; format: cell-based
# Protocol: The osteogenic differentiation of the cells obtained using the three differentiation inducing techniques described in Example was identified by immunofluorescent staining. First, the cells were placed on a 1 cm^2 cover glass and the medium was aspirated. Following washing with PBS, the cells were incubated with a fixing solution (citrate-acetone-formaldehyde) for about 30 sec at room temperature and washed with distilled water for 45 sec. Next, treatment with 3% bovine serum albumin/phosphate buffered saline (BSA/PBS) for 30 min was followed by incubation with a primary antibody for 12 hrs. Then, the cells were washed three times for 15 min in 0.1% Triton X-100/PBS before labeling by incubation with an Alexa488-conjugated secondary antibody (Molecular probes, USA) for 30 min at room temperature. The cells were washed again three times in 0.1% Triton X-100/PBS for 15 min each time for observation under a fluorescent microscope (Olympus, Japan). In order to identify osteogenic differentiation, anti-bone sialoprotein (anti-BSP, Chemicon; 1:100), and anti-osteocalcin (R&D Systems; 1:500) were used for immunofluorescence.
# [9] = osteoblasts differentiated from embryoid bodies, FIG. 6
# [10] = embryoid bodies, one week of differentiation, FIG. 7
# [11] = two weeks of differentiation culture, FIG. 7
compound,measurement,setting,value
CCCCCCCCCCCCCCCCCCOC[C@H](COC(=O)OC1C(O)C(O)C(O)C(CO)C1O)OC (stereo partly drawn) [AKT inhibitor],expression of osteoblast-specific genes,[1],efficiently expressed
same,expression level of osteoblastic markers,[1],increase in expression level
same,expression level of osteoblastic markers,[2],increase in expression level
same,expression level of osteoblast-specific genes compared to untreated control,[2],increase in the expression level
same,expression levels of osteoblast-specific genes,[2]; FIG. 6,increase the expression levels
same,expression of osterix and osteoprotegerin,[2]; [9],expressed at high levels
same,cytotoxicity,[3],without the occurrence of cytotoxicity
O=c1cc(N2CCOCC2)oc2c(-c3ccccc3)cccc12 [LY294002],expression of osteoblast-specific genes,[1],efficiently expressed
same,expression level of osteoblastic markers,[1],increase in expression level
same,expression level of osteoblastic markers,[2],increase in expression level
same,expression level of osteoblast-specific genes compared to untreated control,[2],increase in the expression level
same,expression levels of osteoblast-specific genes,[2]; FIG. 6,increase the expression levels
same,expression of osterix and osteoprotegerin,[2]; [9],expressed at high levels
same,cytotoxicity,[3],without the occurrence of cytotoxicity
same,inhibition of PI3K,[4],inhibits PI3K
same,"inhibition of PI4K, an EGR receptor, a PDGF receptor, an insulin receptor, an MAP kinase, an S6 kinase",[5],does not inhibit
CO[C@H]1C[C@@H]2CC[C@@H](C)[C@@](O)(O2)C(=O)C(=O)N2CCCC[C@H]2C(=O)O[C@H]([C@H](C)C[C@@H]2CC[C@@H](O)[C@H](OC)C2)CC(=O)[C@H](C)/C=C(\C)[C@@H](O)[C@@H](OC)C(=O)[C@H](C)C[C@H](C)/C=C/C=C/C=C/1C [rapamycin],"expression of osteoblast-specific genes, dose comparison",[1]; 20 nM versus 10 nM of rapamycin,greater levels in the presence of 20 nM than 10 nM
same,"expression levels of Osteocalcin and Osteonectin, dose comparison","[1]; 20 nM versus 10 nM rapamycin, FIG. 5",higher at a dose of 20 nM than 10 nM
same,expression of osteoblast-specific genes,[1],efficiently expressed
same,expression level of osteoblastic markers,[1],increase in expression level
same,"expression of osterix, BMP2, and osteonectin genes","[1]; two cell lines, adhesion culture, FIG. 5","expressed in both cell lines, but in different patterns"
same,"expression of osteoblastic markers Cbfa-1, osteocalcin, and osteoprotegerin","[1]; two independently established cell lines, adhesion culture, compared to an undifferentiated control, FIG. 5",expressed; also recorded: distinctively higher levels
same,expression level of osteoblastic markers,[2],increase in expression level
same,expression level of osteoblast-specific genes compared to untreated control,[2],increase in the expression level
same,expression levels of osteoblast-specific genes,[2]; FIG. 6,increase the expression levels
same,osteogenic induction activity among the three compounds,"[2]; even at low doses, FIG. 6",most potent induction activity
same,induction of embryoid bodies to differentiate into osteoblasts relative to LY294002 and AKT inhibitor,"[2]; osteoblastic markers, FIG. 6",more effectively induce
same,amounts of marker genes expressed relative to LY294002 or an AKT inhibitor,[2]; [9],as great as or greater than
same,"diversity of expressed marker genes (BMP2, osteocalcin, Cbfa-2, osterix, osteoprotegerin, GATA2, CMP)",[2]; [9],highest diversity
same,expression of osterix and osteoprotegerin,[2]; [9],expressed at high levels
same,"osteogenic differentiation activity relative to conventional osteogenic supplements (cell morphology, expression level of osteoblastic markers)","[6]; FIGS. 2, 7 and 8",as good as or better than
same,"expression level of osterix, BMP2, BMP4, α1 type I collagen, osteocalcin, osteoprotegerin, osteonectin, and osteopontin","[6]; after three weeks of differentiation culture, FIG. 8",continued to increase in expression level
same,expression level of Cbfa1,"[6]; both human embryonic stem cell lines, after three weeks of differentiation culture",decreased in the expression level
same,"expression levels of osterix, BMP4, α1 type I collagen, osteoprotegerin, and osteopontin","[6]; both human embryonic stem cell lines, three weeks of differentiation culture",similarly increased
same,expression of BMP2 increased,[6]; [10],1.38 fold
same,expression of BSP increased,[6]; [10],6.54 fold
same,expression of Cbfa1 increased,[6]; [10],3.24 fold
same,expression of osteocalcin increased,[6]; [10],1.84 fold
same,expression of osteopontin increased,[6]; [10],2.89 fold
same,expression level of osteoblastic markers,"[6]; embryoid bodies, one week of incubation with rapamycin, FIG. 7",increase in expression level
same,expression level of BMP2 increased,[6]; [11],1.34 fold
same,expression level of BMP4 increased,[6]; [11],1.18 fold
same,expression level of BSP increased,[6]; [11],1.63 fold
same,expression level of Cbfa-1 increased,[6]; [11],2.11 fold
same,expression level of osteocalcin increased,[6]; [11],1.61 fold
same,expression level of osteonectin increased,[6]; [11],1.94 fold
same,expression level of osteopontin increased,[6]; [11],5.81 fold
same,expression level of osteoprotegerin increased,[6]; [11],2.18 fold
same,expression level of osterix increased,[6]; [11],1.59 fold
same,expression level of α1 type I collagen increased,[6]; [11],1.35 fold
same,Alizarin-Red staining of differentiated cells,"[7]; cells induced to differentiate, FIG. 10",positively stained
same,incubation needed to obtain a mature osteoblast phenotype,[7]; embryoid bodies incubated with rapamycin,additional three weeks
same,differentiation into mature osteoblasts,"[7]; embryoid bodies, 20 nM rapamycin for three weeks",most efficient differentiation
same,Alizarin Red S staining,"[7]; embryoid bodies, three weeks, 20 nM rapamycin, FIG. 10",positively stained
same,culture period required to maximize the number of Alizarin Red-positive cells,[7]; osteogenic differentiation with rapamycin alone,three weeks
same,ability to induce osteogenic differentiation relative to conventional osteogenic supplements,[8]; FIG. 9,as good as or better than
same,number of cells differentiated into osteoblasts (BSP or osteocalcin antibody) relative to conventional osteogenic supplements,[8]; FIG. 9,same or greater number
same,immunofluorescent staining with antibodies to BSP and osteocalcin,"[8]; embryoid bodies, three weeks, 20 nM rapamycin",positively stained
same,cytotoxic effects,[3]; 20 nM of rapamycin added to a culture medium,no cytotoxic effects
same,cytotoxicity,[3],without the occurrence of cytotoxicity
